Test results reported in US20090069442A1, “Therapeutic Agent for Sensory Abnormality” (priority 2005, published 2009).
Each block holds one molecule with its values, some of them ahead of it.

Experiments:
[1] = test system: STZ-induced diabetic model mice; test: Improving effect in dullness models, formaldehyde-induced licking and biting behavior; assay type: in vivo, ddY mice; details: a week of intraperitoneal administration (8, 24 and 40 mg/kg) with the STZ administration; 1% formaldehyde into plantar; FIG. 4
Method: Four-week-old male ddY mice were administered with a single dose of streptozotocin (hereunder, also referred to as STZ) (200 mg/kg) by tail vein injection, everyday for a week. For 24 hours after STZ administration, the rats were allowed to freely take a 10% glucose solution instead of drinking water, and then allowed to freely take distilled water. As the test substance, compound 24 synthesized in Preparation Example 24 was used. Concurrently with the start of STZ administration, the test substance-administration group was intraperitoneally administered with a single dose of the test substance (8 mg/kg, 24 mg/kg, and 40 mg/kg) everyday for a week. The control group was administered with the vehicle of the test substance during the same period. The blood glucose level of the tail venous blood was measured by a blood glucose meter (DEXTER ZII: Bayer Medical Ltd.). Individuals with a blood sugar level of 400 mg/dL or more, were used for the experiment. After a week of STZ administration, the mice were subcutaneously injected with 1% formaldehyde solution (20 μL) into the plantar of the left hind paw. The total time spent for licking (licking of plantar of the left hind paw) behavior and biting (biting of plantar of the left hind paw) behavior was scored every 5 minutes after administration, for 60 minutes.

[2] = test system: sciatic nerve entrapment model rats (Bennett model rats); test: Analgesic effect in partial nerve injury models, paw pressure (Randall-Selitto) method; assay type: in vivo, Spraugue-Dawley rats; details: for pain threshold of the nerve-injured paw: started after hyperalgesia confirmed, FIG. 2
Method: (§1) For a hyperalgesia model animal, sciatic nerve entrapment model rats (Bennett model rats) serving as partial nerve injury models, were used. That is, four-week-old male Spraugue-Dawley rats (Japan SLC, Inc.) were housed under a constant temperature and humidity condition for a week. Then, under anesthesia with pentobarbital (50 mg/kg), the sciatic nerve in the left hind paw was stripped from tissue, and raised using tweezers to slightly stretch the axon part. […] The right hind paw was left untreated for use as a normal paw. The operated site was disinfected with Isodine everyday in the first post-operative week to prevent infection.
As the test substance, 3-(15-hydroxypentadecyl)-2,4,4-trimethyl-2-cyclohexen-1-one (hereafter, also referred to as compound 24) synthesized in Preparation Example 24 was used.
Rats showing reduction of pain threshold by 30% or more in the nerve-injured paw, and change in pain threshold within a range of 5% in the normal paw, as compared to preoperative values, were used for the experiment. Prior to administration of the test substance, the nerve-injured paw (operated side) and the normal paw (untreated side) of each individual were subjected to an analgesic test. Furthermore, the test substance-administered group was intraperitoneally administered with a single dose of the test substance (8 mg/kg, 24 mg/kg, and 40 mg/kg) everyday for a week. The control group was administered with the vehicle of the test substance during the same period. After one week from the start of administration, the nerve-injured paw (operated side) and the normal paw (untreated side) of each rat were again subjected to an analgesic test.
The paw pressure (Randall-Selitto) method using pressure stimuli was employed as the analgesic test. Mechanical pressure stimuli were applied on the dorsal portion of the rat hind paw by an analgesimeter, and the minimum value of pressure stimulus at which vocalization or withdrawal occurred was defined as pain threshold. In the measurement of pain threshold according to the paw pressure method, a rat has to be held down and restrained. […]

[3] = test system: sciatic nerve entrapment model rats (Bennett model rats); test: Injury-preventive effect in partial nerve injury models, paw pressure (Randall-Selitto) method; assay type: in vivo, Spraugue-Dawley rats
Method: as §1, with “and used” for “for use”
As the test substance, compound 24 synthesized in Preparation Example 24 was used.
The nerve-injured paw (operated side) and the normal paw (untreated side) of each individual were previously subjected to an analgesic test, subsequently followed by Bennett operation. Furthermore, a single dose of the test substance (8 mg/kg) was intraperitoneally administered from the day of the operation, everyday for a week. The control group was administered with the vehicle of the test substance during the same period. After one week from the start of administration, the nerve injured paw (operated side) and the normal paw (untreated side) of each rat were again subjected to an analgesic test. […]

melting point: 34 to 35 °C
Structure (SMILES): O=C1C=C(CCCCCCCCCCCO)CCC1 [Preparation Example 2, 3-(11-hydroxyundecyl)-2-cyclohexen-1-one]

melting point: 35 to 36 °C
Structure (SMILES): O=C1C=C(CCCCCCCCCCCCO)CCC1 [Preparation Example 3, 3-(12-hydroxydodecyl)-2-cyclohexen-1-one]

melting point: 42 to 43 °C
Structure (SMILES): O=C1C=C(CCCCCCCCCCCCCO)CCC1 [Preparation Example 4, 3-(13-hydroxytridecyl)-2-cyclohexen-1-one]

melting point: 44 to 45 °C
Structure (SMILES): O=C1C=C(CCCCCCCCCCCCCCO)CCC1 [Preparation Example 5, 3-(14-hydroxytetradecyl)-2-cyclohexen-1-one]

Structure (SMILES): CC1=C(CCCCCCCCCCCCCCCO)C(C)(C)CCC1=O [compound 24, 3-(15-hydroxypentadecyl)-2,4,4-trimethyl-2-cyclohexen-1-one]
Phase II pain response (total time spent for licking and biting behavior) [1]: improved Phase II torpor
pain threshold of the nerve-injured paw ([2]; 24 mg/kg intraperitoneally once a day for a week): significant increase in pain threshold
pain threshold of the nerve-injured paw ([2]; 40 mg/kg intraperitoneally once a day for a week): significant increase in pain threshold
pain threshold of the normal paw ([2]; normal paw (untreated side), after the one-week administration period, intraperitoneal): no significant change in pain threshold
pain threshold of the nerve-injured paw after the Bennett operation ([3]; 8 mg/kg intraperitoneally from the day of the operation, everyday for a week, FIG. 3): no significant change in pain threshold
pain threshold of the normal paw ([3]; normal paw (untreated side), 8 mg/kg intraperitoneally everyday for a week): no significant change in pain threshold
